One assay concerns the target T1, PDE5A (Homo sapiens, UniProt O76074).
T1 construct: purchased Eurofins Panlabs Discovery Services Taiwan, Ltd. (contract assay); host or cells: insect Sf9 cells
As to the kind of experiment: PDE enzyme  assay, PDE5A. It is filed as biochemical. Here is the method: (§1) Enzyme assays for various subtypes of PDE (Table 1 and Figure 4) were conducted by Eurofins Panlabs Discovery Services Taiwan, Ltd. (New Taipei City, Taiwan). In the assays, five or six concentrations of nobiletin over five or six orders of magnitude were examined in experiments conducted in duplicate to determine the IC50 (concentration of nobiletin exerting half-maximal inhibition of control-specific activity). IC50 values were determined by nonlinear least squares regression analysis using MathIQTM (ID Business Solutions Ltd., Woking, UK). FAM-cAMP, FAM-cGMP (0.1 μM), and 100 μM [^3H]cGMP + cGMP were used for the substrate in the human recombinant insect Sf9 cells or Bovine retinal rod outer segments depending on the PDE subtype. The spectrofluorometric quantitation of fluorescein-AMP-IMAP, fluorescein-GMP-IMAP, or [^3H] guanosine was used depending on the PDE subtype. A known […] of each PDE was used as the positive control.

A further assay concerns Bmal1 mRNA. As to the kind of experiment: Real-time RT-PCR of Bmal1 mRNA in peripheral tissues. Particulars: after a single treatment. It counts as in vivo, mice. The protocol: (§2) Male C57BL/6J mice (7 weeks old) were purchased from Charles River Japan (Kanagawa, Japan) and used for the serum hormone assay and RT-PCR. Male ICR mice were purchased from Tokyo Laboratory Animals Science Co., Ltd. (Tokyo, Japan), and female PERIOD2::LUCIFERASE (PER2::LUC) knock-in mice (ICR background) bred at Waseda University were used for blood glucose measurements and in vivo imaging assays, respectively. The mice were all housed under conditions of controlled temperature (23 °C ± 3 °C), humidity (50% ± 20%), and lighting (lights on from 07:00 to 19:00 at Taisho Pharmaceutical Co., Ltd. or from 08:00 to 20:00 at Waseda University). In the 24 h cycle, Zeitgeber time 0 (ZT0) was designated as the time when the lights were turned on, and ZT12 was designated as the time when the lights were turned off. All the mice were given access to food and tap water ad libitum, and nobiletin (10–100 mg/kg; purchased from FUJIFILM Wako Pure Chemical Corporation, Osaka, Japan) was administered by intraperitoneal (i.p.) injection in the vehicle (10 mL/kg body weight) containing 0.5% carboxymethyl cellulose (CMC). Rolipram (PDE4 inhibitor, FUJIFILM Wako Pure Chemical Corporation) and SR1078 (RORα/γ agonist, FUJIFILM Wako Pure Chemical Corporation) were also used for the experiment at 10 mg/kg in 0.5% CMC [12]. Mice were euthanized by rapid decapitation for whole blood samples.
(§3) Figure 3 Nobiletin stimulated adrenaline and corticosterone secretion, and induced acute clock gene expression changes. (A–C) Mice received intraperitoneal injections of control (0.5% CMC) or nobiletin (10 or 100 mg/kg) at ZT3. (A) Serum corticosterone at 1 h after treatment (n = 6 in each). $$$ p < 0.001 by Tukey’s multiple comparisons test. (B) Serum corticosterone and adrenaline at 1, 2, and 4 h after treatment (n = 4 in each). # p < 0.05 vs. control at each time point by Mann–Whitney test; ** p < 0.01 vs. control at each time point by Student’s t-test. (C) Blood glucose changes after treatment (n = 9 in each). Statistics of 2-way repeated ANOVA are indicated on the graph. […]

The test system of a further assay is Per1 mRNA. The experiment in a line: Real-time RT-PCR of Per1 mRNA in peripheral tissues. It counts as in vivo, mice. The protocol:
as §2, §3

The target of a further assay is T2, PDE7A (Homo sapiens, UniProt Q13946).
T2 construct: purchased Eurofins Panlabs Discovery Services Taiwan, Ltd. (contract assay); host or cells: insect Sf9 cells
T2 sequence (Q13946 whole entry): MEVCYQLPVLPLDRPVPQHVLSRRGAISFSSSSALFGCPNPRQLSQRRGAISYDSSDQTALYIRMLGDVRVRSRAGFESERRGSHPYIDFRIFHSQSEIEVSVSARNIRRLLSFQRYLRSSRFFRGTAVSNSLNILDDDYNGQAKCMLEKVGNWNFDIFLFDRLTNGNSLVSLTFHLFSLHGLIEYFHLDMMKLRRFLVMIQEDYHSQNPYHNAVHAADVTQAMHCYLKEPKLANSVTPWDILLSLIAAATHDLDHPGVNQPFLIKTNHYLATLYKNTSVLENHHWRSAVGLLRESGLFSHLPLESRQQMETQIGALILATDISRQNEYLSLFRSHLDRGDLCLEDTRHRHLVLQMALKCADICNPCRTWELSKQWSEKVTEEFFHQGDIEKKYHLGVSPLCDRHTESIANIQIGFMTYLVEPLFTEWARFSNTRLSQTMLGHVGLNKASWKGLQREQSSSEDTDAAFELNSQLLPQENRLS
The experiment in a line: PDE enzyme  assay, PDE7A. It counts as biochemical. Here is the method:
as §1

Another assay concerns serum ACTH. The experiment in a line: Serum ACTH ELISA. It is filed as in vivo, mice. Particulars: an hour after injection (50 or 100 mg/kg). Here is the method: Serum corticosterone, adrenaline, and adreno-corticotropic hormone (ACTH) levels, and corticotropin releasing factor (CRF) in the hypothalamus, were measured using enzyme-linked immunosorbent assay (ELISA). A corticosterone ELISA kit (Cayman Chemical Company, Ann Arbor, MI, USA), an adrenaline ELISA kit (Abcam, Cambridge, UK), an ACTH ELISA kit (Phoenix Pharmaceuticals Inc., Burlingame, CA, USA), and a CRF ELISA kit (Yanaihara Institute Inc., Shizuoka, Japan) were used. Assays were conducted according to the manufacturer’s instructions. Blood samples were collected from the mice at ZT4, 5, and 7 after the administration of nobiletin at ZT3 (10 mg/kg and 100 mg/kg, in Figure 3A,B). Blood glucose levels were measured using a Glucose PILOT kit (Aventir Biotech, LLC, Carlsbad, CA, USA). The range of blood glucose that could be precisely measured with the kit was 20–600 mg/dL. Before measurement, we administered nobiletin (100 mg/kg body weight) to the mice, after 4 h fasting. Blood was collected from the tail vein of each mouse for measurement. The measurements were conducted at 0, 15, 30, 45, 60, and 90 min after reagent administration in Figure 3C. Samples were collected one hour after nobiletin treatment (50 or 100 mg/kg; Figure 3D,E), or 2 or 4 h after treatment in Figure 3F. […]

pIC50: −log10 of the molar value.

Regarding `COc1ccc(-c2cc(=O)c3c(OC)c(OC)c(OC)c(OC)c3o2)cc1OC` [nobiletin], the pIC50 on PDE5A was 4.83; at PDE7A, 4.92. In addition, the Bmal1 expression entry in the assay on Bmal1 mRNA is listed as “did not change significantly”. In the assay on Per1 mRNA (4 h after treatment (stomach)), the “Per1 mRNA upregulation” value was “diminished”. For the same compound, the “Per1 mRNA” value with Per1 mRNA (kidney, liver (1 h) and stomach (2 h) after treatment) was “upregulated”. Moreover, the “serum ACTH” value with serum ACTH was “did not change significantly”.

The values above are taken from paper PMC11123956, “Nobiletin Stimulates Adrenal Hormones and Modulates the Circadian Clock in Mice” (Nutrients, 2024).
